Measured values from PMC7589200, “Identification of Putative Non-Substrate-Based XT-I Inhibitors by Natural Product Library Screening” (Biomolecules, 2020).
Where a name gives a salt, the structure may show the parent alone.

Target: T1, recombinant human XT-I (Homo sapiens, UniProt Q86Y38)
T1 sequence (Q86Y38 252-959 limits assumed): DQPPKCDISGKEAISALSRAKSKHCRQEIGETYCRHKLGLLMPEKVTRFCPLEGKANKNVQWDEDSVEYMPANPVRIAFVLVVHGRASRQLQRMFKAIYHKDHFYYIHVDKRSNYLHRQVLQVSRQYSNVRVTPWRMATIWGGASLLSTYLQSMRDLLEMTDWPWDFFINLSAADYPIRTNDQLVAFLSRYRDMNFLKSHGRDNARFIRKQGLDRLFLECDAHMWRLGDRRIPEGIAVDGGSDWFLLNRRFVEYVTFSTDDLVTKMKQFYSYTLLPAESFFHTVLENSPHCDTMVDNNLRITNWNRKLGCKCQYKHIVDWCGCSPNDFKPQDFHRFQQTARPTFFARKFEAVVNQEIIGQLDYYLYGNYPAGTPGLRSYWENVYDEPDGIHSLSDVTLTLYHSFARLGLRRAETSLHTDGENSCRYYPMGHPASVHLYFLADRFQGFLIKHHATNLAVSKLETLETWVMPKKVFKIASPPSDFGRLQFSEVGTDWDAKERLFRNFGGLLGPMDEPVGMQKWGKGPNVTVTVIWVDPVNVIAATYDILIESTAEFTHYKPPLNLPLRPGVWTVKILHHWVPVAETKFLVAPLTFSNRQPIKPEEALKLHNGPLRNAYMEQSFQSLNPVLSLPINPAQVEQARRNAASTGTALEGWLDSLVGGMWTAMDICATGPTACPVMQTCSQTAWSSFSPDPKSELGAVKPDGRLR
Experiment: NP library inhibitor screening, UPLC/ESI-MS/MS XT-I assay
Format: biochemical
Conditions: not given

Compound	XT-I Activity [%]
COc1cc(CNC(=O)CCCC/C=C/C(C)C)ccc1O [Compound 94, Capsaicin (Vanilloid)]	135%

Same assay, conditions: Table 2; 50 μM inhibitor; relative to control (DMSO = 100%); technical duplicates

XT-I Activity [%]	Compound
43%	COc1cc(/C=C/C(=O)CC(=O)/C=C/c2ccc(O)c(OC)c2)ccc1O [Compound 86, Curcumin]

Same assay, conditions: Table S1; 50 μM inhibitor; relative to negative control containing DMSO; technical duplicates

remaining activity at 50 µM	XT-I Activity [%]	Compound
101%		Clc1ccccc1C(c1ccccc1)(c1ccccc1)n1ccnc1 [Compound 60, Clotrimazole]
138%		CC1(C)[C@H](C(=O)O)N2C(=O)C[C@H]2S1(=O)=O [Compound 90, Sulbactam]
51%		Oc1ccc(/C=C/c2cc(O)cc(O)c2)cc1 [Compound 37, Resveratrol]
43%		COc1cc(/C=C/C(=O)CC(=O)/C=C/c2ccc(O)c(OC)c2)ccc1O [Compound 86, Curcumin]
107%		COc1c2occc2cc2ccc(=O)oc12 [Compound 77, Methoxsalen]
111%		C[C@H]1COc2c(N3CCN(C)CC3)c(F)cc3c(=O)c(C(=O)O)cn1c23 [Compound 55, Levofloxacin]
94%		C[C@H]1[C@H](NC(=O)/C(=N\OC(C)(C)C(=O)O)c2csc(N)n2)C(=O)N1S(=O)(=O)O [Compound 5, Aztreonam]
107%		C[C@@H](O)[C@H]1C(=O)N2C(C(=O)O)=C(S[C@@H]3CN[C@H](C(=O)N(C)C)C3)[C@H](C)[C@H]12 [Compound 26, Meropenem]
89%		COC(=O)[C@H]1[C@H]2C[C@@H]3c4[nH]c5cc(OC)ccc5c4CCN3C[C@H]2C[C@@H](OC(=O)c2cc(OC)c(OC)c(OC)c2)[C@@H]1OC [Compound 38, Reserpine]
	116%	NC(=O)c1cccnc1 [Compound 54, Nicotinamide (Vitamin B3)]
118%		Nc1ccc(S(N)(=O)=O)cc1 [Compound 51, Sulfanilamide]
113%		CC(=O)[C@H]1CC[C@H]2[C@@H]3CCC4=CC(=O)CC[C@]4(C)[C@H]3CC[C@]12C [Compound 73, Progesterone]
113%		C[C@H](CCC(=O)O)[C@H]1CC[C@H]2[C@@H]3[C@H](O)C[C@@H]4C[C@H](O)CC[C@]4(C)[C@H]3CC[C@]12C [Compound 75, Chenodeoxycholic Acid]
87%		CC[C@]1(O)C[C@H]2CN(CCc3c([nH]c4ccccc34)[C@@](C(=O)OC)(c3cc4c(cc3OC)N(C=O)[C@H]3[C@@](O)(C(=O)OC)[C@H](OC(C)=O)[C@]5(CC)C=CCN6CC[C@]43[C@@H]65)C2)C1 [Compound 35, Vincristine sulfate]
	94%	Vitamin B12 [Compound 65]
104%		NC(=O)N/N=C/c1ccc([N+](=O)[O-])o1 [Compound 50, Nitrofural]
105%		CC[C@H]1OC(=O)[C@H](C)[C@@H](O[C@H]2C[C@@](C)(OC)[C@@H](O)[C@H](C)O2)[C@H](C)[C@@H](O[C@@H]2O[C@H](C)C[C@H](N(C)C)[C@H]2O)[C@](C)(O)C[C@@H](C)C(=O)[C@H](C)[C@@H](O)[C@]1(C)O [Compound 6, Erythromycin]
70%		CO[C@H]1C[C@@H]2CC[C@@H](C)[C@@](O)(O2)C(=O)C(=O)N2CCCC[C@H]2C(=O)O[C@H]([C@H](C)C[C@@H]2CC[C@@H](O)[C@H](OC)C2)CC(=O)[C@H](C)/C=C(\C)[C@@H](O)[C@@H](OC)C(=O)[C@H](C)C[C@H](C)/C=C/C=C/C=C/1C [Compound 1, Rapamycin (Sirolimus)]

remaining activity at 50 µM	XT-I Activity [%]	Compound
94%		C[C@@H](c1ncncc1F)[C@](O)(Cn1cncn1)c1ccc(F)cc1F [Compound 70, Voriconazole]
149%		Clc1ccc(COC(Cn2ccnc2)c2ccc(Cl)cc2Cl)c(Cl)c1 (stereo not drawn) [Compound 88, Miconazole Nitrate]
	106%	C[C@@H]1C[C@H]2[C@@H]3CCC4=CC(=O)C=C[C@]4(C)[C@@]3(F)[C@@H](O)C[C@]2(C)[C@@]1(O)C(=O)CO [Compound 25, Dexamethasone (DHAP)]
106%		CC1=CC(=O)c2ccccc2C1=O [Compound 66, Menadione]
93%		Nc1[nH]c(=O)ncc1F [Compound 7, Flucytosine]
120%		C[C@]12CC[C@@H]3c4ccc(O)cc4CC[C@H]3[C@@H]1CCC2=O [Compound 83, Estrone]
94%		O=c1c(-c2ccc(O)cc2)coc2cc(O)cc(O)c12 [Compound 58, Genistein]
75%		O=[N+]([O-])c1cn2c(n1)OC[C@@H](OCc1ccc(OC(F)(F)F)cc1)C2 [Compound 45, PA-824]
	137%	O=c1[nH]cc(F)c(=O)[nH]1 [Compound 78, Fluorouracil (5-Fluoracil, 5-FU)]
	86%	C[C@@H](O)[C@H]1C(=O)N2C(C(=O)O)=C(S[C@@H]3CN[C@H](CNS(N)(=O)=O)C3)[C@H](C)[C@H]12.O [Compound 4, Doripenem Hydrate]
104%		CO/N=C(\C(=O)N[C@@H]1C(=O)N2C(C(=O)OCOC(=O)C(C)(C)C)=C(/C=C\c3scnc3C)CS[C@H]12)c1csc(N)n1 [Compound 52, Cefditoren Pivoxil]
	113%	COc1cccc2c1C(=O)c1c(O)c3c(c(O)c1C2=O)C[C@@](O)(C(=O)CO)C[C@@H]3O[C@H]1C[C@H](N)[C@H](O)[C@H](C)O1.Cl [Compound 67, Doxorubicin (Adriamycin) HCl]
71%		N[C@@H](C(=O)N[C@@H]1C(=O)N2C(C(=O)O)=C(Cl)CS[C@H]12)c1ccccc1 [Compound 81, Cefaclor]
99%		COc1ccc2[nH]cc(CCNC(C)=O)c2c1 [Compound 56, Melatonin]
50%		CO[C@H]1/C=C/O[C@@]2(C)Oc3c(C)c(O)c4c(O)c(c(/C=N/N5CCN(C6CCCC6)CC5)c(O)c4c3C2=O)NC(=O)/C(C)=C\C=C\[C@H](C)[C@H](O)[C@@H](C)[C@@H](O)[C@@H](C)[C@H](OC(C)=O)[C@@H]1C [Compound 30, Rifapentine]
103%		CC(=O)NC[C@H]1CN(c2ccc(N3CCOCC3)c(F)c2)C(=O)O1 [Compound 59, Linezolid]
126%		O=C(O)c1cccnc1 [Compound 19, Nicotinic Acid]
109%		CC[C@H]1OC(=O)[C@H](C)[C@@H](O[C@H]2C[C@@](C)(OC)[C@@H](O)[C@H](C)O2)[C@H](C)[C@@H](O[C@@H]2O[C@H](C)C[C@H](N(C)C)[C@H]2O)[C@](C)(O)C[C@@H](C)CN(C)[C@H](C)[C@@H](O)[C@]1(C)O [Compound 53, Azithromycin]

Compound	remaining activity at 50 µM	XT-I Activity [%]
CN(N=O)C(=O)N[C@H]1C(O)O[C@H](CO)[C@@H](O)[C@@H]1O (mixture of isomers) [Compound 3, Streptozotocin (STZ)]		101%
C/C(=C\c1csc(C)n1)[C@@H]1C[C@@H]2O[C@@H]2CCC[C@H](C)[C@H](O)[C@@H](C)C(=O)C(C)(C)[C@@H](O)CC(=O)O1 [Compound 79, Epothilone A]	119%	
CO[C@H]1/C=C\C=C(/C)C(=O)NC2=CC(=O)C(NCCN(C)C)=C(C[C@@H](C)C[C@H](OC)[C@H](O)[C@@H](C)/C=C(\C)[C@@H]1OC(N)=O)C2=O.Cl [Compound 12, Alvespimycin (17-DMAG) HCl]		120%
Bleomycin sulfate [Compound 96]		149%
